Experimental data as given in the supplement of paper PMC10307832.

Tests used:
Test in all cases: relative viability (nuclei count vs DMSO), 5 days (fraction); higher = more cells survive
[1] = compound: C1=CC=C(C(=C1)C2=CC=C(C=C2)C3=CSC4=C3C(=C(C(=O)N4)C#N)O)O + Nc1nc2[nH]cc(CCc3ccc(C(=O)N[C@@H](CCC(=O)O)C(=O)O)cc3)c2c(=O)[nH]1 [Pemetrexed] (partner 0.2 µM)
In short: (§1)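 Lung cancer cell lines were pin-tool dosed in 1536-well plates on the day after seeding, with either a lone drug or a fixed anchor-drug dose plus five library-drug doses (not always all listed) in √10 steps. Nuclei were counted on 4× images after 5 days. Relative viability is the ratio of treated-well to vehicle-well nuclei counts, with each value a median of duplicate plates.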

[2] = compound: CC1=CN2C(=O)C=C(N=C2C(=C1)C(C)NC3=CC=CC=C3)N4CCOCC4 [TGX 221] + CS(=O)(=O)N1CCN(Cc2cc3nc(-c4cccc5[nH]ncc45)nc(N4CCOCC4)c3s2)CC1 [Pictilisib] (partner 1 µM)
In short: as §1

[3] = compound: C1=CC=C(C(=C1)C2=CC=C(C=C2)C3=CSC4=C3C(=C(C(=O)N4)C#N)O)O + COc1cccc2cc(-c3nc([C@H]4CC[C@H](C(=O)O)CC4)n4ncnc(N)c34)[nH]c12 [OSI-027] (partner 0.5 µM)
In short: as §1

[4] = compound: C1=CC=C(C(=C1)C2=CC=C(C=C2)C3=CSC4=C3C(=C(C(=O)N4)C#N)O)O + O=C(CCCCCCC(=O)Nc1ccccc1)NO [Vorinostat] (partner 1 µM)
In short: as §1

Row | Cell Line | relative viability ([1]; first compound 0.08 µM) | relative viability ([1]; first compound 0.253 µM) | relative viability ([1]; first compound 0.8 µM) | relative viability ([1]; first compound 2.53 µM) | relative viability ([1]; first compound 8 µM) | relative viability ([2]; first compound 0.08 µM) | relative viability ([2]; first compound 0.253 µM) | relative viability ([2]; first compound 0.8 µM) | relative viability ([2]; first compound 2.53 µM) | relative viability ([2]; first compound 8 µM) | relative viability ([3]; first compound 0.08 µM) | relative viability ([3]; first compound 0.253 µM) | relative viability ([3]; first compound 0.8 µM) | relative viability ([3]; first compound 2.53 µM) | relative viability ([3]; first compound 8 µM) | relative viability ([4]; first compound 0.08 µM) | relative viability ([4]; first compound 0.253 µM) | relative viability ([4]; first compound 0.8 µM) | relative viability ([4]; first compound 2.53 µM) | relative viability ([4]; first compound 8 µM)
1 | NCI-H322M | 0.561 | 0.574 | 0.657 | 0.576 | 0.559 | 0.399 | 0.479 | 0.525 | 0.477 | 0.478 | 0.59 | 0.489 | 0.502 | 0.576 | 0.514 | 0.841 | 0.756 | 0.817 | 0.865 | 0.855
2 | NCI-H358 | 0.156 | 0.188 | 0.175 | 0.162 | 0.176 | 0.374 | 0.352 | 0.373 | 0.354 | 0.32 | 0.787 | 0.724 | 0.758 | 0.779 | 0.736 | 0.641 | 0.647 | 0.666 | 0.839 | 0.484
3 | NCI-H441 | 0.26 | 0.282 | 0.232 | 0.237 | 0.267 | 0.486 | 0.447 | 0.456 | 0.511 | 0.508 | 0.647 | 0.669 | 0.565 | 0.822 | 0.646 | 0.551 | 0.812 | 0.858 | 0.818 | 0.742
4 | NCI-H460 | 0.0846 | 0.0612 | 0.0666 | 0.0616 | 0.0618 | 0.339 | 0.363 | 0.23 | 0.312 | 0.378 | 0.36 | 0.755 | 0.377 | 0.868 | 0.462 | 0.529 | 0.339 | 0.866 | 0.924 | 0.582
5 | NCI-H520 | 0.484 | 0.676 | 0.804 | 0.705 | 0.608 | 0.335 | 0.237 | 0.276 | 0.251 | 0.296 | 0.174 | 0.192 | 0.237 | 0.304 | 0.233 | 0.655 | 0.571 | 0.69 | 0.726 | 0.604
6 | NCI-H596 | 0.532 | 0.545 | 0.544 | 0.44 | 0.488 | 0.4 | 0.439 | 0.409 | 0.389 | 0.466 | 0.55 | 0.722 | 0.692 | 0.732 | 0.553 | 0.588 | 0.574 | 0.589 | 0.48 | 0.527
7 | NCI-H647 | – | 0.18 | 0.16 | 0.17 | 0.189 | 0.407 | 0.404 | 0.406 | 0.37 | 0.412 | 0.694 | 0.578 | 0.568 | 0.628 | 0.362 | – | 0.947 | 0.58 | 0.637 | 0.461
8 | NCI-H650 | 0.944 | 1.05 | 0.972 | 0.979 | 0.862 | 0.893 | 0.768 | 0.831 | 0.92 | 0.777 | 0.474 | 0.469 | 0.501 | 0.587 | 0.58 | 0.412 | 0.438 | 0.422 | 0.426 | 0.309
